How the values were obtained:
Mus musculus = organism: Mus musculus; experiment: Potency index, ratio of IC50 for Vismodegib to IC50 for test compound for inhibition of hedgehog signaling pathway in mouse NIH/3T3 cells carrying stably transfected Gli-reporter construct by luciferase reporter assay; type: cell-based
[1] = Inhibition of hedgehog signaling pathway in mouse NIH/3T3 cells carrying stably transfected Gli-reporter construct by luciferase reporter assay; type: cell-based; details: NIH3T3
[2] = AUC (0 to t) in Sprague-Dawley rat at 5 mg/kg, po formulated using 0.5% HPMC + 0.3% Tween-80 (pH = 2.8) measured during 2 mins to 24 hrs post dose by LC/MS/MS method; type: ADME, organism-based; set-up: time 0.033-24 hr, dose 5 mg/kg, route oral; details: in vivo
[3] = Cmax in Sprague-Dawley rat at 5 mg/kg, po formulated using 0.5% HPMC + 0.3% Tween-80 (pH = 2.8) measured during 2 mins to 24 hrs post dose by LC/MS/MS method; type: ADME, organism-based; set-up: dose 5 mg/kg, route oral; details: in vivo
[4] = Cmax in Sprague-Dawley rat at 5 mg/kg, po formulated using 5% DMA + 5% Tween-80 measured during 2 mins to 24 hrs post dose by LC/MS/MS method; type: ADME, organism-based; set-up: dose 5 mg/kg, route oral; details: in vivo
Rattus norvegicus [5] = experiment: Apparent volume of distribution in Sprague-Dawley rat at 5 mg/kg, po formulated using 5% DMA + 5% Tween-80 measured during 2 mins to 24 hrs post dose by LC/MS/MS method; type: ADME, organism-based; details: in vivo
[6] = AUC (0 to t) in Sprague-Dawley rat at 1 mg/kg, iv formulated using 5% DMA + 5% Tween-80 measured during 2 mins to 24 hrs post dose by LC/MS/MS method; type: ADME, organism-based; set-up: dose 1 mg/kg, time 0.033-24 hr, route intravenous; details: in vivo
[7] = Mean residence time (0 to t) in Sprague-Dawley rat at 5 mg/kg, po formulated using 0.5% HPMC + 0.3% Tween-80 (pH = 2.8) measured during 2 mins to 24 hrs post dose by LC/MS/MS method; type: ADME, organism-based; details: in vivo
[8] = Clearance in Sprague-Dawley rat at 5 mg/kg, po formulated using 5% DMA + 5% Tween-80 measured during 2 mins to 24 hrs post dose by LC/MS/MS method; type: ADME, organism-based; details: in vivo
Rattus norvegicus [9] = experiment: Apparent volume of distribution in Sprague-Dawley rat at 5 mg/kg, po formulated using 0.5% HPMC + 0.3% Tween-80 (pH = 2.8) measured during 2 mins to 24 hrs post dose by LC/MS/MS method; type: ADME, organism-based; details: in vivo, pH 2.8, 5 mg/kg
[10] = Apparent volume of distribution in Sprague-Dawley rat at 1 mg/kg, iv formulated using 5% DMA + 5% Tween-80 measured during 2 mins to 24 hrs post dose by LC/MS/MS method; type: ADME, organism-based; details: in vivo, read-out: Vz
[11] = Half life in Sprague-Dawley rat at 1 mg/kg, iv formulated using 5% DMA + 5% Tween-80 measured during 2 mins to 24 hrs post dose by LC/MS/MS method; type: ADME, organism-based; details: in vivo
[12] = AUC (0 to t) in Sprague-Dawley rat at 5 mg/kg, po formulated using 5% DMA + 5% Tween-80 measured during 2 mins to 24 hrs post dose by LC/MS/MS method; type: ADME, organism-based; set-up: time upper 24 hr, time lower 0.033 hr, dose 5 mg/kg, route oral; details: in vivo
[13] = Mean residence time (0 to t) in Sprague-Dawley rat at 5 mg/kg, po formulated using 5% DMA + 5% Tween-80 measured during 2 mins to 24 hrs post dose by LC/MS/MS method; type: ADME, organism-based; details: in vivo
[14] = Clearance in Sprague-Dawley rat at 1 mg/kg, iv formulated using 5% DMA + 5% Tween-80 measured during 2 mins to 24 hrs post dose by LC/MS/MS method; type: ADME, organism-based; details: in vivo
[15] = Half life in Sprague-Dawley rat at 5 mg/kg, po formulated using 0.5% HPMC + 0.3% Tween-80 (pH = 2.8) measured during 2 mins to 24 hrs post dose by LC/MS/MS method; type: ADME, organism-based; details: in vivo
[16] = Cmax in Sprague-Dawley rat at 1 mg/kg, iv formulated using 5% DMA + 5% Tween-80 measured during 2 mins to 24 hrs post dose by LC/MS/MS method; type: ADME, organism-based; set-up: dose 1 mg/kg, route intravenous; details: in vivo
[17] = Clearance in Sprague-Dawley rat at 5 mg/kg, po formulated using 0.5% HPMC + 0.3% Tween-80 (pH = 2.8) measured during 2 mins to 24 hrs post dose by LC/MS/MS method; type: ADME, organism-based; details: in vivo
[18] = Half life in Sprague-Dawley rat at 5 mg/kg, po formulated using 5% DMA + 5% Tween-80 measured during 2 mins to 24 hrs post dose by LC/MS/MS method; type: ADME, organism-based; details: in vivo
[19] = Mean residence time (0 to t) in Sprague-Dawley rat at 1 mg/kg, iv formulated using 5% DMA + 5% Tween-80 measured during 2 mins to 24 hrs post dose by LC/MS/MS method; type: ADME, organism-based; details: in vivo

Row | Compound | Ratio IC50 (Mus musculus) | IC50 [1] [nM] | also measured
1 | Cc1ccc(CN2CCOCC2)cc1NC(=O)c1ccc(Nc2ncc(C)c(-c3ccccc3)n2)c(F)c1 | 150 | 0.05 | –
2 | Cc1ccc(CN2CCOCC2)cc1NC(=O)c1ccc(Nc2nccc(-c3cnn(C)c3)n2)c(F)c1 | – | 48.9 | –
3 | Cc1ccc(CN(C)C)cc1NC(=O)c1ccc(Nc2ncc(C)c(-c3ccc(OC(F)(F)F)cc3)n2)c(F)c1 | > 8 | 0.78 | –
4 | Cc1ccc(CN2CCCCC2)cc1NC(=O)c1ccc(Nc2ncc(C)c(-c3ccc(OC(F)(F)F)cc3)n2)c(F)c1 | > 8 | 0.94 | –
5 | Cc1ccc(CN2CCN(C)CC2)cc1NC(=O)c1ccc(Nc2ncc(F)c(-c3ccncc3)n2)c(F)c1 | – | 42.7 | –
6 | Cc1ccc(CN2CCOCC2)cc1NC(=O)c1ccc(Nc2ncc(C)c(-c3ccc(OC(F)(F)F)cc3)n2)c(F)c1 | 14 | 0.5 | –
7 | Cc1ccc(CN2CCOCC2)cc1NC(=O)c1ccc(Nc2ncc(C)c(-c3ccccn3)n2)c(F)c1 | – | 1.15 | –
8 | Cc1ccc(CN2CCN(C)CC2)cc1NC(=O)c1ccc(Nc2ncc(F)c(-c3ccc(OC(F)(F)F)cc3)n2)c(F)c1 | – | 5.67 | –
9 | Cc1ccc(CN2CCN(C)CC2)cc1NC(=O)c1ccc(Nc2nccc(-c3cccnc3)n2)c(F)c1 | – | 7.2 | –
10 | CS(=O)(=O)c1ccc(C(=O)Nc2ccc(Cl)c(-c3ccccn3)c2)c(Cl)c1 [VISMODEGIB] | – | 7.2 | –
11 | Cc1ccc(OCCCN2CCOCC2)cc1NC(=O)c1ccc(Nc2ncc(C)c(-c3ccc(OC(F)(F)F)cc3)n2)c(F)c1 | – | 1.02 | –
12 | Cc1ccc(CN2CCCC2)cc1NC(=O)c1ccc(Nc2ncc(C)c(-c3ccc(OC(F)(F)F)cc3)n2)c(F)c1 | – | 2.03 | –
13 | Cc1ccc(CN2CCN(C)CC2)cc1NC(=O)c1ccc(Nc2ncc(C)c(-c3ccc(OC(F)(F)F)cc3)n2)c(F)c1 | > 8 | 0.93 | AUC(0-t) [2]: 882 ng·h/mL; Cmax [3]: 57.1 ng/mL; Cmax [4]: 62.4 ng/mL; Vz (Rattus norvegicus [5]): 71.6877 L/kg; AUC(0-t) [6]: 383 ng·h/mL; MRT last [7]: 10.3 h; CL/F [8]: 55.7 mL/min/kg; Vz (Rattus norvegicus [9]): 69.4647 L/kg; Vd [10]: 37.4 L/kg; half-life [11]: 13.5 h; AUC(0-t) [12]: 956 ng·h/mL; MRT last [13]: 10.7 h; clearance [14]: 32.2 mL/min/kg; half-life [15]: 11.7 h; Cmax [16]: 225 ng/mL; CL/F [17]: 68.7 mL/min/kg; half-life [18]: 14.9 h; MRT last [19]: 7.93 h
14 | Cc1ccc(OCCN2CCOCC2)cc1NC(=O)c1ccc(Nc2ncc(C)c(-c3ccc(OC(F)(F)F)cc3)n2)c(F)c1 | > 8 | 0.71 | –
15 | CCN(CC)Cc1ccc(C)c(NC(=O)c2ccc(Nc3ncc(C)c(-c4ccc(OC(F)(F)F)cc4)n3)c(F)c2)c1 | > 8 | 0.9 | –

— ChEMBL document CHEMBL4052695, “Introduction of fluorine to phenyl group of 4-(2-pyrimidinylamino)benzamides leading to a series of potent hedgehog signaling pathway inhibitors” (Bioorg Med Chem Lett, 2017)
